How the values were obtained:
[1] = system: somatic cells from ovaries of mice at day 13 of age; assay: cGMP and cAMP production by cultured somatic cells; type: cell-based; details: day 13 mice, 2 h
Protocol: (§1) Stimulation of cGMP, but not cAMP, production by cultured ovarian somatic cells: Because the NPRB receptors mediated cGMP production stimulated by the CNP ligand, we isolated somatic cells from ovaries of mice at day 13 of age and granulosa cells from mice at day 21 of age before treatment with increasing doses of CNP or a high dose (30 nM) of ANP for 2 h. Media content of both cGMP and cAMP were determined by RIA.

[2] = system: granulosa cells from mice at day 21 of age; assay: cGMP and cAMP production by cultured granulosa cells; type: cell-based; details: day 21 mice, 2 h
Protocol: as §1

preantral follicles [3] = assay: Preantral follicle culture; type: cell-based, mice
Text: CNP treatment promoted the growth of preantral follicles and cultured ovarian explants: Preantral follicles (125-135 um in diameter) were isolated from ovaries of mice at day 13 of age and treated with different hormones for four days with daily monitoring of follicle diameters. […] In contrast, treatment with ANP was ineffective.
Dissection follicles of different sizes and culturing of preantral follicles: For RT-PCR analyses, early secondary follicles of 90-140 um in diameters were isolated from mice at day 13 of age whereas antral follicles (300-400 um in diameter) were isolated from prepubertal mice at day 23 of age. Preovulatory follicles (500-600 um in diameter) were isolated from prepubertal mice treated with eCG (5 IU). For follicle cultures, preantral follicles (125-145 um in diameter) were isolated from mice at day 13 of age and cultured individually in 96 well plates containing alpha-MEM (100 ul/well) with penicillin and streptomycin together with insulin, transferrin and selenium. […] The media were changed every two days and follicle growth was monitored daily by measuring follicle diameters.

ovaries from day 10 mice = assay: Ovarian explant cultures treated with CNP and/or FSH; type: cell-based; details: 4 days culture
Protocol: Ovarian explant cultures: Ovaries from day 10 mice were placed on culture plate inserts (Millipore, Bedford, Mass.) and cultured in 400 μl of DMEM/F12 containing 0.1% BSA (Sigma), 0.1% Albumax II, insulin-transferrin-selenium, 0.05 mg/ml L-ascorbic acid and penicillin-streptomycin under the membrane insert to cover ovaries with a thin layer of medium. […] Some explants were also treated with a pan-specific protein kinase G inhibitor, Rp-8-Br-PET-cGMPS (BioLog, Bremen, Germany). At the end of culture, ovaries were fixed in Bouin's solution, paraffin embedded, and cut into continuous sections before staining with hematoxylin and eosin.

preantral follicles [4] = assay: In vivo treatment of juvenile mice (day 13) with CNP followed by eCG/hCG; details: day 13 mice
Protocol: In vivo treatment with CNP promoted follicle development for ovulation and subsequent pregnancy in juvenile, prepubertal, and adult mice: To test the ability CNP to stimulate preantral follicle development in vivo, juvenile mice at day 13 of age were treated i.p. with CNP daily for 4 days. This was followed by a single i.p. injection of eCG for 2 more days before determination of ovarian weight. […] Some of these animals were further treated with an ovulatory dose of hCG to check ovulation efficiency.
(§2) In vivo treatment with CNP, ovulation, and pregnancy: Infantile mice at day 13 of age were treated with CNP (20 ug/kg body weight) i.p. daily for 4 days. This was followed by a single injection of eCG (5 IU) for 2 days to stimulate penultimate follicle maturation before collection of ovaries for weighting and histological analyses. Some animals were further treated with an ovulatory dose (5 IU) of hCG and oocytes in oviducts were monitored at 16 h later to evaluate ovulation efficiency. To test the effects of CNP on early antral follicle growth, prepubertal mice at day 21 of age were treated intraperitoneally with CNP (50 ug/kg body weight) daily for four days to stimulate preovulatory follicle development, followed by the injection of an ovulatory dose (2.5 IU) of hCG. At 16 h later, number of ovulated oocytes was determined. Mature oocytes obtained from CNP-pretreated animals were used for in vitro fertilization. Sperm from CD1 male mice (10-12 weeks old) were collected into human tubal fluid media (Millipore) and incubated for 1 h at 37 C. Oocytes were fertilized with sperm (2-3×10^5/ml) for 6 h and inseminated oocytes were transfer into KSOM-AA medium (Millipore) to allow development into blastocysts. Some of the CNP-pretreated females were mated with fertile males for the monitoring of pregnancy and the delivery of pups.

early antral follicles = assay: In vivo treatment of prepubertal mice (day 21) with CNP followed by hCG, in vitro fertilization, mating
Protocol: To further test the ability of CNP to stimulate the development of early antral follicles to the preovulatory stage, prepubertal mice at day 21 days of age were treated i.p. with CNP daily for 4 days followed by a single injection of an ovulatory dose of hCG. At […] after hCG treatment, the number of ovulated mature oocytes were determined.
We further tested if ovulated oocytes retrieved after CNP pretreatment are capable of being fertilized. Oocytes were obtained from oviducts of CNP-pretreated prepubertal mice after hCG treatment and used for in vitro fertilization. We used oocytes obtained from prepubertal mice treated sequential with eCG (2 days) and hCG (16 h) as controls. […] Some prepubertal females pretreated with CNP followed by hCG to induce ovulation were mated with fertile males.
as §2

[5] = system: human ovarian cortical fragments; assay: Xenografts of human ovarian cortical fragments; type: in vivo
[6] = Observation of abnormalities after 4 days of CNP treatment; type: in vivo, mice; details: present dosages and injection protocols
Text: CNP acts exclusively through NPRB whereas ANP and BNP act through NPRA. […] The apparent lack of side effects using the present low doses of CNP is consistent with earlier reports showing minimal cardiac and renal actions using physiological concentrations of CNP.

[7] = short term infusion in humans, supraphysiological levels in plasma; cited from earlier work

Question: With “CNP: 22 amino acid peptide cleaved from NPPC precursor; activates natriuretic peptide receptor-B (NPRB)” as the substance, how does the cAMP production [1] read?
Answer: no changes in cAMP production

Question: What about the “Media content of cGMP” value ([1]; ANP 30 nM) of the same substance?
Answer: dose-dependent increases in media content of cGMP

Question: And the cAMP production [2]?
Answer: no changes in cAMP production

Question: What about the “Media content of cGMP” value ([2]; ANP 30 nM) of the same substance?
Answer: dose-dependent increases in media content of cGMP

Question: What about the “Follicle growth, combined treatment with CNP and FSH” value (preantral follicles [3]; FSH 25 ng/ml) of the same substance?
Answer: additive increases in follicle growth

Question: What about the “Follicle size compared with 8-bromo-cGMP” value (preantral follicles [3]; four days culture) of the same substance?
Answer: comparable

Question: What about the “Follicle size (diameter)” value (preantral follicles [3]; preantral follicles of day 13 mice, four days) of the same substance?
Answer: dose- and time-dependent increases in follicle size

Question: And the “Development of preantral follicles (histological analyses)” value (ovaries from day 10 mice)?
Answer: promoted the development of preantral follicles

Question: And the “Ovarian weights of explants, both CNP and FSH included” value (ovaries from day 10 mice; combined with FSH)?
Answer: additive increases

Question: And the “Ovarian weights of explants” value (ovaries from day 10 mice; day 10 ovaries)?
Answer: dose-dependent increases in ovarian weights

Question: What about the “Ovulated oocytes in the oviducts vs controls” value (preantral follicles [4]; CNP, then eCG and hCG) of the same substance?
Answer: higher numbers of ovulated oocyte

Question: What about the “Increase in ovarian weight” value (preantral follicles [4]; i.p. 20 ug/kg daily for 4 days, then eCG 2 days) of the same substance?
Answer: 56%

Question: And the “Development of antral follicles (histological analyses)” value (preantral follicles [4]; i.p. daily for 4 days, then eCG)?
Answer: increases in the development of antral follicles

Question: And the “Number of ovulated oocytes induced by hCG vs saline” value (early antral follicles; day 21 mice, 18 h after hCG)?
Answer: an increase in the number of ovulated oocytes

Question: What about the Ovarian weight (early antral follicles; day 21 mice, i.p. 50 ug/kg daily for 4 days, then hCG) of the same substance?
Answer: increased ovarian weight

Question: What about the “Development of fertilized oocytes to the blastocyst stage vs control oocytes (eCG-hCG)” value (early antral follicles; in vitro fertilization of oocytes of CNP-pretreated prepubertal mice) of the same substance?
Answer: same efficiency

Question: And the “Pregnancy after mating with fertile males” value (early antral follicles; prepubertal females pretreated with CNP followed by hCG)?
Answer: Successful pregnancy was demonstrated followed by the delivery of healthy pups

Question: And the “Follicle growth as revealed by follicle counting” value [5]?
Answer: stimulated follicle growth

Question: And the Abnormalities following treatment [6]?
Answer: did not observe abnormalities

Question: What about the “Vasodepressor or natriuretic action” value [7] of the same substance?
Answer: not vasodepressor or natriuretic

Source: patent publication US10792311B2, “Stimulation of ovarian follicle development and oocyte maturation” (The Board of Trustees of the Leland Stanford Junior …, priority 2011, dated 2020)
